Results taken from patent US20230331675A1, “AROMATIC ETHYLENE COMPOUND AND PREPARATION METHOD THEREFOR, AND INTERMEDIATE, PHARMACEUTICAL COMPOSITION, AND APPLICATION THEREOF” (GUANGZHOU MAXINOVEL PHARMACEUTICALS CO., LTD., priority 2020, published 2023).

biological target: PD-1/PD-L1 (Homo sapiens (Human), UniProt Q9NZQ7); experiment: Homogeneous time-resolved fluorescence (HTRF) binding assay; conditions: CisBio kit, read-out: IC50 of compounds binding to PD-1/PD-L1
Description: Effect embodiment 1: Homogenouse time-resolved fluorescence
Homogeneous time-resolved fluorescence (HTRF) binding assay was used to determine the binding ability of the compound of the present disclosure to PD-1/PD-L1.
The purchased kit (CisBio, #64CUS000C-1) contained reagents required for assays such as PD-1, PD-L1, anti-tag1-Eu, Anti-tag2-XL665, dilute buffer, and detection buffer.
1. The compound was formulated to 10 concentrations with a 3-fold gradient with 100% DMSO.
2. The DMSO solution of the compound was added to the dilute buffer, mixed thoroughly, then transferred to a 96-well plate.
3. PD-L1 was diluted with dilute buffer, then added to the above 96-well plate.
4. PD-1 was diluted with dilute buffer and added to the above 96-well plate, which was then incubated at room temperature for 30 minutes.
5. A portion of anti-tag1-Eu and a portion of anti-tag2-XL665 were added to the detection buffer, mixed thoroughly and transferred to the above 96-well plate.
6. The mixture in the above 96-well plate was incubated at room temperature for 1 to 24 hours.
7. HTRF values were read with Envision.

Sequence of PD-1/PD-L1 (Q9NZQ7 19-238): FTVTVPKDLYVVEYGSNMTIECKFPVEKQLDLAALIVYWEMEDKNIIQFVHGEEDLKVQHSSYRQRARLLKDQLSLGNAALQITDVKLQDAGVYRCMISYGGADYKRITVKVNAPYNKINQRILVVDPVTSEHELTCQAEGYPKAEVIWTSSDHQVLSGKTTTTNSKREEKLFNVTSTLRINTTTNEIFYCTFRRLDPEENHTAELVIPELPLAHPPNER

Row | IC50 [nM] | Compound
1 | 57.2 | COCCOc1cc(/C=C/c2cccc(-c3ccccc3)c2C#N)c(C)cc1CN1CCNC[C@H]1C(=O)O [Compound 27, (S,E)-1-(4-(2-(2-Cyano-[1,1′-biphenyl]-3-yl)vinyl)-2-(2-methoxyethoxy)-5-methylbenzyl)piperazine-2-carboxylic acid]
2 | 4.4 | COc1cc(/C=C/c2cccc(-c3ccccc3)c2C#N)c(Cl)cc1CN1CCCC[C@H]1C(=O)O [Compound 57, (S,E)-1-(5-Chloro-4-(2-(2-cyano-[1,1′-biphenyl]-3-yl)vinyl)-2-methoxybenzyl)piperidine-2-carboxylic acid]
3 | 29.5 | [2H]C([2H])([2H])c1c(/C=C/c2cc(CN[C@@](C)(CO)C(=O)O)ccc2C(F)(F)F)cccc1-c1ccccc1 [Compound 55]
4 | 1.9 | COc1cc(/C=C/c2cccc(-c3ccccc3)c2C#N)c(C(F)(F)F)cc1CN1CCCC[C@H]1C(=O)O [Compound 7, (S,E)-1-(4-(2-(2-Cyano-[1,1′-biphenyl]-3-yl)vinyl)-2-methoxy-5-trifluoromethylbenzyl)piperidine-2-carboxylic acid]
5 | 25.8 | Cc1cc(/C=C/c2cccc(-c3ccccc3)c2C#N)c(Cl)cc1CN1CCOC[C@H]1C(=O)O [Compound 9, (S,E)-4-(5-Chloro-4-(2-(2-cyano-[1,1′-biphenyl]-3-yl)vinyl)-2-methylbenzyl)morpholine-3-carboxylic acid]
6 | 5.31 | Cc1cc(CN2CCCC[C@H]2C(=O)O)c(OCc2cc(I)ccn2)cc1/C=C/c1cccc(-c2ccccc2)c1C [Compound 79, (S,E)-1-(2-((4-Iodo-pyridin-2-yl)methoxy)-5-methyl-4-(2-(2-methyl-[1,1′-biphenyl]-3-yl)vinyl)benzyl)piperidine-2-carboxylic acid]
7 | 5.91 | Cc1c(/C=C/c2cc(OCc3cccc(I)c3)c(CN3CCCC[C@H]3C(=O)O)cc2C(F)(F)F)cccc1-c1ccccc1 [Compound 77]
8 | 260 | COc1cc(/C=C(\Br)c2cccc(-c3ccccc3)c2C)c(C)cc1CNCCO [Compound 69, (Z)-2-((4-(2-Bromo-2-(2-methyl-[1,1′-biphenyl]-3-yl)vinyl)-2-methoxy-5-methylbenzyl)amino)-1-ethanol]
9 | 8.9 | [2H]C([2H])([2H])Oc1cc(/C=C/c2cccc(-c3ccccc3)c2C)c(Cl)cc1CN1CCCC[C@H]1C(=O)O [Compound 59, (S,E)-1-(5-Chloro-2-(methoxy-d3)-4-(2-(2-methyl-[1,1′-biphenyl]-3-yl)vinyl)benzyl)piperidine-2-carboxylic acid]
10 | 3.7 | N#Cc1c(/C=C/c2cc(CO)c(CN3CCCC[C@H]3C(=O)O)cc2C(F)(F)F)cccc1-c1ccccc1 [Compound 20, (S,E)-1-(4-(2-(2-Cyano-[1,1′-biphenyl]-3-yl)vinyl)-2-hydroxymethyl-5-trifluoromethylbenzyl)piperidine-2-carboxylic acid]
11 | 10.2 | N#Cc1c(/C=C/c2ccc(CN3CCCC[C@H]3C(=O)O)cc2C(F)(F)F)cccc1-c1ccccc1 [Compound 1, (S,E)-1-(4-(2-(2-Cyano-[1,1′-biphenyl]-3-yl)vinyl)-3-trifluoromethylbenzyl)piperidine-2-carboxylic acid]
12 | 6.5 | Cc1cc(/C=C/c2cccc(-c3ccccc3)c2C)c(Cl)cc1CN1CCCC[C@H]1C(=O)O [Compound 5, (S,E)-1-(5-Chloro-2-methyl-4-(2-(2-methyl-[1,1′-biphenyl]-3-yl)vinyl)benzyl)piperidine-2-carboxylic acid]
13 | 2.8 | Cc1c(/C=C/c2cc(OCCF)c(CN3CCCC[C@H]3C(=O)O)cc2C(F)(F)F)cccc1-c1ccccc1 [Compound 87, (S,E)-1-(2-(2-Fluoroethoxy)-4-(2-(2-methyl-[1,1′-biphenyl]-3-yl)vinyl)-5-(trifluoromethyl)benzyl)piperidine-2-carboxylic acid]
14 | 1.85 | Cc1c(/C=C/c2cc(OCc3cncc(I)c3)c(CN3CCCC[C@H]3C(=O)O)cc2C(F)(F)F)cccc1-c1ccccc1 [Compound 82, (S,E)-1-(2-((5-Iodopyridin-3-yl)methoxy)-4-(2-(2-methyl-[1,1′-biphenyl]-3-yl)vinyl)-5-(trifluoromethyl)benzyl)piperidine-2-carboxylic acid]
15 | 160 | [2H]C([2H])([2H])OCc1cc(/C=C/c2cccc(-c3ccccc3)c2C#N)c(C(F)(F)F)cc1CN1CCOC[C@H]1C(=O)O [Compound 54, (S,E)-4-(4-(2-(2-Cyano-[1,1′-biphenyl]-3-yl)vinyl)-2-((methoxy-d3)methyl)-5-trifluoromethylbenzyl)morpholine-3-carboxylic acid]
16 | 9.1 | COCCOc1cc(/C=C/c2cccc(-c3ccccc3)c2C#N)c(C)cc1CN1CCOC[C@H]1C(=O)O [Compound 25, (S,E)-4-(4-(2-(2-Cyano-[1,1′-biphenyl]-3-yl)vinyl)-2-(2-methoxyethoxy)-5-methylbenzyl)morpholine-3-carboxylic acid]
17 | 265 | COCCOc1cc(C)c(/C=C/c2cccc(-c3ccccc3)c2C#N)cc1CN1CCOC[C@H]1C(=O)O [Compound 44, (S,E)-4-(5-(2-(2-Cyano-[1,1′-biphenyl]-3-yl)vinyl)-2-(2-methoxyethoxy)-4-methylbenzyl)morpholine-3-carboxylic acid]
18 | 18.6 | COCc1cc(/C=C/c2cccc(-c3ccccc3)c2C#N)c(C(F)(F)F)cc1CN1CCCC[C@H]1C(=O)O [Compound 49, (S,E)-1-(4-(2-(2-Cyano-[1,1′-biphenyl]-3-yl)vinyl)-2-(methoxymethyl)-5-trifluoromethylbenzyl)piperidine-2-carboxylic acid]
19 | 7.42 | COc1cc(/C=C/c2cccc(-c3ccccc3)c2C)c(C(F)(F)F)cc1CN1CCCC[C@@H]1C(=O)O [Compound 62, (R,E)-1-(2-Methoxy-4-(2-(2-methyl-[1,1′-biphenyl]-3-yl)vinyl)-5-trifluoromethylbenzyl)piperidine-2-carboxylic acid]
20 | 85.2 | Cc1cc(/C=C/c2cccc(-c3ccccc3)c2C#N)c(Cl)cc1CN1CCN(C)C[C@H]1C(=O)O [Compound 14, (S,E)-1-(5-Chloro-4-(2-(2-cyano-[1,1′-biphenyl]-3-yl)vinyl)-2-methylbenzyl)-4-methylpiperazine-2-carboxylic acid]
21 | 46 | Cc1cc(/C=C/c2cccc(-c3ccccc3)c2C#N)c(Cl)cc1CN1CCNC[C@H]1C(=O)O [Compound 13, (S,E)-1-(5-Chloro-4-(2-(2-cyano-[1,1′-biphenyl]-3-yl)vinyl)-2-methylbenzyl)piperazine-2-carboxylic acid]
22 | 8.03 | Cc1cc(CN2CCCC[C@H]2C(=O)O)c(OCCCF)cc1/C=C/c1cccc(-c2ccccc2)c1C [Compound 84, (S,E)-1-(2-(3-Fluoropropoxy)-5-methyl-4-(2-(2-methyl-[1,1′-biphenyl]-3-yl)vinyl)benzyl)piperidine-2-carboxylic acid]
23 | 10.7 | Cc1c(/C=C/c2ccc(CN3CCCC[C@H]3C(=O)O)cc2C(F)(F)F)cccc1-c1ccccc1 [Compound 4, (S,E)-1-(4-(2-(2-Methyl-[1,1′-biphenyl]-3-yl)vinyl)-3-trifluoromethylbenzyl)piperidine-2-carboxylic acid]
24 | 0.59 | [2H]C([2H])([2H])Oc1cc(/C=C/c2cccc(-c3ccccc3)c2C)c(C(F)(F)F)cc1CN1CCCC[C@H]1C(=O)O [Compound 60, (S,E)-1-(2-(Methoxy-d3)-4-(2-(2-methyl-[1,1′-biphenyl]-3-yl)vinyl)-5-trifluoromethylbenzyl)piperidine-2-carboxylic acid]
25 | 83.9 | COCCOc1cc(C)c(/C=C/c2cccc(-c3ccccc3)c2C#N)cc1CN1CCCC[C@H]1C(=O)O [Compound 43, (S,E)-1-(5-(2-(2-Cyano-[1,1′-biphenyl]-3-yl)vinyl)-2-(2-methoxyethoxy)-4-methylbenzyl)piperidine-2-carboxylic acid]
26 | 62 | Cc1cc(/C=C/c2cccc(-c3ccccc3)c2C#N)c(Cl)cc1CN1CCN(C(N)=O)C[C@H]1C(=O)O [Compound 29, (S,E)-4-Carbamoyl-1-(5-chloro-4-(2-(2-cyano-[1,1′-biphenyl]-3-yl)vinyl)-2-methylbenzyl)piperazine-2-carboxylic acid]
27 | 169 | COc1cc(/C=C(\Br)c2cccc(-c3ccccc3)c2C)c(C)cc1CN1CCCC[C@H]1C(=O)O [Compound 68, (S,Z)-1-(4-(2-Bromo-2-(2-methyl-[1,1′-biphenyl]-3-yl)vinyl)-2-methoxy-5-methylbenzyl)piperidine-2-carboxylic acid]

Row | Compound | IC50 [nM]
28 | CS(=O)(=O)CCCOc1cc(/C=C/c2cccc(-c3ccccc3)c2C#N)c(CN2CCOC[C@H]2C(=O)O)cc1Cl [Compound 37] | > 10000
29 | Cc1cc(OCCCCC#N)c(CN2CCOC[C@H]2C(=O)O)cc1/C=C/c1cccc(-c2ccccc2)c1C#N [Compound 40, (S,E)-4-(5-(2-(2-Cyano-[1,1′-biphenyl]-3-yl)vinyl)-2-(4-cyanobutoxy)-4-methylbenzyl)morpholine-3-carboxylic acid] | 1440
30 | Cc1cc(CN2CCOC[C@H]2C(=O)O)c(OCCCCC#N)cc1/C=C/c1cccc(-c2ccccc2)c1C#N [Compound 17, (S,E)-4-(4-(2-(2-Cyano-[1,1′-biphenyl]-3-yl)vinyl)-2-(4-cyanobutoxy)-5-methylbenzyl)morpholine-3-carboxylic acid] | 4.4
31 | Cc1ccc(OCCCCC#N)c(CN2CCOC[C@H]2C(=O)O)c1/C=C/c1cccc(-c2ccccc2)c1C#N [Compound 46, (S,E)-4-(2-(2-(2-Cyano-[1,1′-biphenyl]-3-yl)vinyl)-6-(4-cyanobutoxy)-3-methylbenzyl)morpholine-3-carboxylic acid] | > 10000
